# Reference: BindingDB's records for doi:10.1016/s0960-894x(01)00219-0 (Research Biomet. Glaxo Wellcome Medicines Research Centre, 2001)
# Experiments:
# [1] = Inhibition of c-erbB-2 overexpressing HB4a cell proliferation
# [2] = molecular target: Receptor tyrosine-protein kinase erbB-2 (Rattus norvegicus, UniProt P06494); test: ChEBML_194950
# Source text: Inhibition of rat Receptor protein-tyrosine kinase erbB2
# [3] = Inhibition of erbB2 overexpressing BT 474 cell proliferation
# [4] = Inhibition of erbB2 overexpressing HB4a.e5.2 cell proliferation
# Chain of Receptor tyrosine-protein kinase erbB-2 (P06494 whole entry): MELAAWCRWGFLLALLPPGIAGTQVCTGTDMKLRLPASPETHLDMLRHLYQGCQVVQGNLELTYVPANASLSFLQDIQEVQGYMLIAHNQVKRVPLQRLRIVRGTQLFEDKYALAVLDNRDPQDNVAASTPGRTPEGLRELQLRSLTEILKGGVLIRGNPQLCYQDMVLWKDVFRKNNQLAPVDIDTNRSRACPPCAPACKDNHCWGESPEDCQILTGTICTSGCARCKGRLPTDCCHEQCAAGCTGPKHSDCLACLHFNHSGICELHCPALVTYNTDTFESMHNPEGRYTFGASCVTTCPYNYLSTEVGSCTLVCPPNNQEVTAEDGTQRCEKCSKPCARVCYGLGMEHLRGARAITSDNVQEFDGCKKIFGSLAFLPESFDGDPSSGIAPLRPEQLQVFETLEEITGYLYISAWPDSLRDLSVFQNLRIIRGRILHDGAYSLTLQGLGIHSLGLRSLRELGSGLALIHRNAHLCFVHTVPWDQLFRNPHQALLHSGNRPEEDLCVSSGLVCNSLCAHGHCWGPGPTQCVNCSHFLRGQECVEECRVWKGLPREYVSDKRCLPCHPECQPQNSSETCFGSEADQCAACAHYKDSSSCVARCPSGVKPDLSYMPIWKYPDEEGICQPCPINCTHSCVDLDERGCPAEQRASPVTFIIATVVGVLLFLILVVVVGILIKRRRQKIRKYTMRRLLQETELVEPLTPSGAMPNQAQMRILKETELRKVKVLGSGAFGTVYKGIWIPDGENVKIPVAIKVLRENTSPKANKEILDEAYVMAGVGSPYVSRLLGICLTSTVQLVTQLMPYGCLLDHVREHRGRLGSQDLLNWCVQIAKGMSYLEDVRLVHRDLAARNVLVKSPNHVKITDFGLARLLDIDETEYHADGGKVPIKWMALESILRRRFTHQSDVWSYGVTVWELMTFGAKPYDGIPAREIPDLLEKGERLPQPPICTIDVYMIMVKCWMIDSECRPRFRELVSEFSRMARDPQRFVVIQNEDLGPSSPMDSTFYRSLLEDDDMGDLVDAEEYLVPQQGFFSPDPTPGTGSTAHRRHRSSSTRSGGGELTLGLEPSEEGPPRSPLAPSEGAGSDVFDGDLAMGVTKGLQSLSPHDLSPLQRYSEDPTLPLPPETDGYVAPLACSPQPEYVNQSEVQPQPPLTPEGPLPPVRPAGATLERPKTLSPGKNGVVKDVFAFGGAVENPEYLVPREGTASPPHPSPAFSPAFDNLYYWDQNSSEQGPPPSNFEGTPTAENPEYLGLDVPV
SMILES,IC50 [1] [µM],also measured
"COc1cc2ncnc(Nc3ccc4c(cnn4Cc4ccccc4)c3)c2cc1OC [(1-Benzyl-1H-indazol-5-yl)-(6,7-dimethoxy-quinazolin-4-yl)-amine]",0.29,
"COc1cc2ncnc(Nc3ccc4nc(Cc5ccccc5)[nH]c4c3)c2cc1OC [(2-Benzyl-1H-benzoimidazol-5-yl)-(6,7-dimethoxy-quinazolin-4-yl)-amine]",1.1,
c1ccc(Cc2nc3ccc(Nc4ncnc5ccccc45)cc3[nH]2)cc1 [(2-Benzyl-1H-benzoimidazol-5-yl)-quinazolin-4-yl-amine],1.3,
"COc1cc2ncnc(Nc3ccc4nn(Cc5ccccc5)cc4c3)c2cc1OC [(2-Benzyl-2H-indazol-5-yl)-(6,7-dimethoxy-quinazolin-4-yl)-amine]",3.1,
"CN(C)c1cc2c(Nc3ccc4c(cnn4Cc4ccccc4)c3)ncnc2cn1 [N*4*-(1-Benzyl-1H-indazol-5-yl)-N*6*,N*6*-dimethyl-pyrido[3,4-d]pyrimidine-4,6-diamine]",,IC50 [2]: 0.39 µM; IC50 [3]: 0.07 µM; IC50 [4]: 0.097 µM
"Nc1cc2c(Nc3ccc4c(cnn4Cc4ccccc4)c3)ncnc2cn1 [N*4*-(1-Benzyl-1H-indazol-5-yl)-pyrido[3,4-d]pyrimidine-4,6-diamine]",0.097,
"Nc1cc2c(Nc3ccc4nc(Cc5ccccc5)[nH]c4c3)ncnc2cn1 [N*4*-(2-Benzyl-1H-benzoimidazol-5-yl)-pyrido[3,4-d]pyrimidine-4,6-diamine]",1.86,

# More lines, main results first:
IC50 [1] [µM],SMILES,also measured
27,c1ccc(Cn2cnc3cc(Nc4ncnc5ccccc45)ccc32)cc1 [(1-Benzyl-1H-benzoimidazol-5-yl)-quinazolin-4-yl-amine],
0.35,"COc1cc2ncnc(Nc3ccc4c(ccn4Cc4ccccc4)c3)c2cc1OC [(1-Benzyl-1H-indol-5-yl)-(6,7-dimethoxy-quinazolin-4-yl)-amine]",
1.3,c1ccc(Cn2ccc3cc(Nc4ncnc5ccccc45)ccc32)cc1 [(1-Benzyl-1H-indol-5-yl)-quinazolin-4-yl-amine],
21,c1ccc(Cn2cnc3ccc(Nc4ncnc5ccccc45)cc32)cc1 [(3-Benzyl-3H-benzoimidazol-5-yl)-quinazolin-4-yl-amine],
